Measured values: patent US20190133518A1, “METHODS AND SYSTEMS FOR DETERMINING DIURETIC RESPONSE PROFILES” (PACESETTER, INC., priority 2017, published 2019)

Test system: patient
Assay: Mean PAP measurements of a patient before and after taking medication (Example 1, medication modification)
Format: in vivo
Excerpt: In accordance with the present disclosure, an exemplary embodiment is as follows. A patient implanted with CARDIOMEMS, instead of simply providing a single reading each day, provides a reading twice a week (or daily) via the following protocol: First, the patient wakes up in the morning and takes a PAP reading (prior to any medication ingestion). Immediately thereafter, the patient takes all medications, which include HF medications including diuretic(s). A timer goes off in the bed-side monitor (patient home electronics unit), and about sixty minutes later, the patient takes another PAP recording. As noted elsewhere throughout this disclosure, the timing between readings is variable.
The protocol based recordings are marked with a unique identifier and transmitted to a database (e.g., Merlin.net database). The protocol based PAP recordings are then used to determine the diuretic response profile of the patient. Specifically, the response profile is determined using PAP measurement data-points at time […] (pre medication) and time (t2) (“x” minutes after medication) and the time constant of the specific diuretic via, for example, a polynomial regression fit. For example, the time constant of furosemide is shorter than the longer acting thiazide diuretic.
This example examined the characterization/determination of medication dosage and temporal response in a patient given different kinds of medication. […] The mean PAP measurement of the patient at time (t1) was about 35 mmHg. […].

NS(=O)(=O)c1cc(C(=O)O)c(NCc2ccco2)cc1Cl [furosemide]
average PAP measurement at time (t2) (week 1, 80 mg furosemide, about 1 hour after medication (FIG. 6A)): about 19 mmHg
mean PAP measurement at time (t3) (week 1, 80 mg furosemide, about 2 hours after medication (FIG. 6A)): about 21 mmHg
mean PAP measurement at time (t1) (week 1, 80 mg furosemide, t1 prior to medication (FIG. 6A)): about 35 mmHg
mean PAP measurements at time (t2) and time (t3) compared with week 1 (week 2, 80 mg furosemide (FIG. 6B)): similar
mean PAP measurement after medication (week 2, 80 mg furosemide, after medication (FIG. 6B)): about 19 mmHg
mean PAP measurement at time (t1) (week 2, 80 mg furosemide, t1 prior to medication (FIG. 6B)): about 31 mmHg
diuretic profile in the patient (week 10, 80 mg furosemide (FIG. 6C)): early signs of developing diuretic resistance
mean PAP measurement at time (t1) (week 10, 80 mg furosemide, prior to ingestion of the medication (FIG. 6C)): about 31 mmHg
mean PAP measurement after medication (week 10, 80 mg furosemide, time (t2) and time (t3) (FIG. 6C)): about 27 mmHg
